Measurements as given in ChEMBL document CHEMBL3108774, “Azaindoles: noncovalent DprE1 inhibitors from scaffold morphing efforts, kill Mycobacterium tuberculosis and are efficacious in vivo” (J Med Chem, 2013).
Values after ≈ are worked out from the molar mass of the structure shown.

Experiments:
Assay type in all cases: functional
[1] = system: Mycobacterium tuberculosis; experiment: Antimicrobial activity against Mycobacterium tuberculosis H37Rv ATCC 27294 harboring DprE1 Y314H mutant assessed as growth inhibition after 5 days by microdilution method
[2] = system: Mycobacterium tuberculosis; experiment: Antimicrobial activity against Mycobacterium tuberculosis H37Rv ATCC 27294 overexpressing DprE1 assessed as growth inhibition after 5 days by microdilution method; details: H37Rv ATCC 27294, 120 h
[3] = system: Mycobacterium tuberculosis; experiment: Antimicrobial activity against Mycobacterium tuberculosis H37Rv ATCC 27294 harboring DprE1 C387S mutant assessed as growth inhibition after 5 days by microdilution method
[4] = system: Mycobacterium tuberculosis; experiment: Antimicrobial activity against Mycobacterium tuberculosis H37Rv ATCC 27294 harboring DprE1 C387G mutant assessed as growth inhibition after 5 days by microdilution method

COc1ncnc(Cn2cc(C(=O)NCCO)c3ncc(C)cc32)c1C [TBA-7371]
MIC [1]: >200 µM | MIC [2]: 100 µM (≈ 35.5 µg/mL) | MIC [3]: 0.39 µM (≈ 0.139 µg/mL) | MIC [4]: 0.78 µM (≈ 0.277 µg/mL)

COc1ncnc(Cn2cc(C(=O)NCCF)c3ncc(C)cc32)c1C
MIC [1]: >200 µM | MIC [2]: 6.25 µM (≈ 2.23 µg/mL) | MIC [3]: 0.39 µM (≈ 0.139 µg/mL) | MIC [4]: 0.39 µM (≈ 0.139 µg/mL)

COc1ncnc(Cn2cc(C(=O)NCCF)c3ncccc32)c1C
MIC [1]: >100 µM | MIC [2]: 50 µM (≈ 17.2 µg/mL) | MIC [3]: 3.12 µM (≈ 1.07 µg/mL) | MIC [4]: 0.78 µM (≈ 0.268 µg/mL)
